Columns and labels:
Assay in all cases: relative viability (nuclei count vs DMSO), 5 days (fraction); higher = more cells survive
HCC-15 = test system: HCC-15
Procedure, shortened: (§1)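 Lung cancer cell lines were pin-tool dosed in 1536-well plates on the day after seeding, with either a lone drug or a fixed anchor-drug dose plus five library-drug doses (not always all listed) in √10 steps. Nuclei were counted on 4× images after 5 days. Relative viability is the ratio of treated-well to vehicle-well nuclei counts, with each value a median of duplicate plates.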

HCC-366 = test system: HCC-366
Procedure, shortened: as §1

NCI-H358 = test system: NCI-H358
Procedure, shortened: as §1

NCI-H1755 = test system: NCI-H1755
Procedure, shortened: as §1

NCI-H2342 = test system: NCI-H2342
Procedure, shortened: as §1

LC-2-ad = test system: LC-2-ad
Procedure, shortened: as §1

NCI-H1437 = test system: NCI-H1437
Procedure, shortened: as §1

EMC-BAC-2 = test system: EMC-BAC-2
Procedure, shortened: as §1

NCI-H2347 = test system: NCI-H2347
Procedure, shortened: as §1

NCI-H1793 = test system: NCI-H1793
Procedure, shortened: as §1

PC-14 = test system: PC-14
Procedure, shortened: as §1

NCI-H1792 = test system: NCI-H1792
Procedure, shortened: as §1

NCI-H23 = test system: NCI-H23
Procedure, shortened: as §1

NCI-H650 = test system: NCI-H650
Procedure, shortened: as §1

NCI-H1915 = test system: NCI-H1915
Procedure, shortened: as §1

NCI-H1395 = test system: NCI-H1395
Procedure, shortened: as §1

201T = test system: 201T
Procedure, shortened: as §1

`CCNC(=O)c1noc(-c2cc(C(C)C)c(O)cc2O)c1-c1ccc(CN2CCOCC2)cc1` [Luminespib] + NC(=O)Nc1cc(-c2cccc(F)c2)sc1C(=O)N[C@H]1CCCNC1 [AZD7762] (partner 0.2 µM) gave a relative viability (HCC-15; first compound 0.002 µM) of 1.11, a relative viability (HCC-15; first compound 0.006325 µM) of 1.11 and a relative viability (HCC-15; first compound 0.02 µM) of 1.36. The relative viability (HCC-15; first compound 0.06325 µM) was 1.14, the relative viability (HCC-15; first compound 0.2 µM) was 0.247 and the relative viability (HCC-366; first compound 0.002 µM) was 0.392. For the same compound, the relative viability (HCC-366; first compound 0.006325 µM) was 0.302, the relative viability (HCC-366; first compound 0.02 µM) was 0.331 and the relative viability (HCC-366; first compound 0.06325 µM) was 0.0393. The relative viability (HCC-366; first compound 0.2 µM) was 0.0222, the relative viability (NCI-H358; first compound 0.002 µM) was 0.607 and the relative viability (NCI-H358; first compound 0.006325 µM) was 0.632. It also gave a relative viability (NCI-H358; first compound 0.02 µM) of 0.316, a relative viability (NCI-H358; first compound 0.06325 µM) of 0.14 and a relative viability (NCI-H358; first compound 0.2 µM) of 0.134. The relative viability (NCI-H1755; first compound 0.002 µM) was 0.429, the relative viability (NCI-H1755; first compound 0.006325 µM) was 0.355 and the relative viability (NCI-H1755; first compound 0.02 µM) was 0.352. The relative viability (NCI-H1755; first compound 0.06325 µM) was 0.245, the relative viability (NCI-H1755; first compound 0.2 µM) was 0.161 and the relative viability (NCI-H2342; first compound 0.002 µM) was 0.472. It also gave a relative viability (NCI-H2342; first compound 0.006325 µM) of 0.434, a relative viability (NCI-H2342; first compound 0.02 µM) of 0.371 and a relative viability (NCI-H2342; first compound 0.06325 µM) of 0.492. For the same compound, the relative viability (NCI-H2342; first compound 0.2 µM) was 0.26, the relative viability (LC-2-ad; first compound 0.002 µM) was 0.802 and the relative viability (LC-2-ad; first compound 0.006325 µM) was 0.854. The relative viability (LC-2-ad; first compound 0.02 µM) was 0.833, the relative viability (LC-2-ad; first compound 0.06325 µM) was 0.146 and the relative viability (LC-2-ad; first compound 0.2 µM) was 0.16. It also gave a relative viability (NCI-H1437; first compound 0.002 µM) of 1.11, a relative viability (NCI-H1437; first compound 0.006325 µM) of 1.04 and a relative viability (NCI-H1437; first compound 0.02 µM) of 1.15. The relative viability (NCI-H1437; first compound 0.06325 µM) was 0.785, the relative viability (NCI-H1437; first compound 0.2 µM) was 0.278 and the relative viability (EMC-BAC-2; first compound 0.002 µM) was 1.12. It also gave a relative viability (EMC-BAC-2; first compound 0.006325 µM) of 0.655, a relative viability (EMC-BAC-2; first compound 0.02 µM) of 0.689 and a relative viability (EMC-BAC-2; first compound 0.06325 µM) of 0.769. For the same compound, the relative viability (EMC-BAC-2; first compound 0.2 µM) was 0.226, the relative viability (NCI-H2347; first compound 0.002 µM) was 0.844 and the relative viability (NCI-H2347; first compound 0.006325 µM) was 0.719. For the same compound, the relative viability (NCI-H2347; first compound 0.02 µM) was 0.614, the relative viability (NCI-H2347; first compound 0.06325 µM) was 0.469 and the relative viability (NCI-H2347; first compound 0.2 µM) was 0.202. It also gave a relative viability (NCI-H1793; first compound 0.002 µM) of 0.406, a relative viability (NCI-H1793; first compound 0.006325 µM) of 0.422 and a relative viability (NCI-H1793; first compound 0.02 µM) of 0.15. It also gave a relative viability (NCI-H1793; first compound 0.06325 µM) of 0.0769, a relative viability (NCI-H1793; first compound 0.2 µM) of 0.11 and a relative viability (PC-14; first compound 0.002 µM) of 0.32. The relative viability (PC-14; first compound 0.006325 µM) was 0.38, the relative viability (PC-14; first compound 0.02 µM) was 0.179 and the relative viability (PC-14; first compound 0.06325 µM) was 0.102. For the same compound, the relative viability (PC-14; first compound 0.2 µM) was 0.0933, the relative viability (NCI-H1792; first compound 0.002 µM) was 0.797 and the relative viability (NCI-H1792; first compound 0.006325 µM) was 0.519. For the same compound, the relative viability (NCI-H1792; first compound 0.02 µM) was 0.146, the relative viability (NCI-H1792; first compound 0.06325 µM) was 0.0335 and the relative viability (NCI-H1792; first compound 0.2 µM) was 0.0361. For the same compound, the relative viability (NCI-H23; first compound 0.002 µM) was 0.258, the relative viability (NCI-H23; first compound 0.006325 µM) was 0.247 and the relative viability (NCI-H23; first compound 0.02 µM) was 0.259. The relative viability (NCI-H23; first compound 0.06325 µM) was 0.133, the relative viability (NCI-H23; first compound 0.2 µM) was 0.11 and the relative viability (NCI-H650; first compound 0.002 µM) was 0.93. The relative viability (NCI-H650; first compound 0.006325 µM) was 0.958, the relative viability (NCI-H650; first compound 0.02 µM) was 0.587 and the relative viability (NCI-H650; first compound 0.06325 µM) was 0.139. For the same compound, the relative viability (NCI-H650; first compound 0.2 µM) was 0.0919, the relative viability (NCI-H1915; first compound 0.002 µM) was 0.662 and the relative viability (NCI-H1915; first compound 0.006325 µM) was 0.674. It also gave a relative viability (NCI-H1915; first compound 0.02 µM) of 0.627, a relative viability (NCI-H1915; first compound 0.06325 µM) of 0.473 and a relative viability (NCI-H1915; first compound 0.2 µM) of 0.0604. It also gave a relative viability (NCI-H1395; first compound 0.002 µM) of 0.399, a relative viability (NCI-H1395; first compound 0.006325 µM) of 0.372 and a relative viability (NCI-H1395; first compound 0.02 µM) of 0.374. For the same compound, the relative viability (NCI-H1395; first compound 0.06325 µM) was 0.343, the relative viability (NCI-H1395; first compound 0.2 µM) was 0.384 and the relative viability (201T; first compound 0.002 µM) was 0.621. The relative viability (201T; first compound 0.006325 µM) was 0.555, the relative viability (201T; first compound 0.02 µM) was 0.525 and the relative viability (201T; first compound 0.06325 µM) was 0.516. It also gave a relative viability (201T; first compound 0.2 µM) of 0.318.
